According to patent US6911469B2, “Sulfonamide compounds and pharmaceutical use thereof” (Fujisawa Pharmaceutical Co., Ltd., priority 1997, dated 2005):

What was measured:
female db/db mice = experiment: blood sugar level depressing activity in dd/db mice; format: in vivo; conditions: dose 10 mg/kg, drug mixed with powder diet, given for 14 days, difference between db/db control group and +/+ mice taken as 100%
Description: (blood sugar level depressing activity in dd/db mice)
Female C57BL/KsJ-dbm db+/db+, C57BL/KsJ-dbm +m/+m (Jackson Laboratory) mice (5 weeks old) were purchased and subjected to the test after 2-3 weeks of acclimating period.
The test drug was mixed with a powder diet (CE-2, Clea Japan, Inc.) in a mortar. In the case of administration in 100 mg/kg, the mixing proportion of the test drug to the diet was 0.1%, in the case of 30 mg/kg, the proportion was 0.03% and in the case of 10 mg/kg, the proportion was 0.01%. The diet was changed twice a week. The amount of the diet given and the amount left were recorded and the diet intake was calculated by determining the difference.
The female db/db mice were grouped according to body weight, blood sugar level and triglceride concentration in blood. […] The blood sugar value, triglyceride concentration in plasma and insulin concentration in plasma were measured at day 0 and day 14, and blood sugar value and triglyceride concentration in blood were measured at day 7. Body weight was measured at day 0, day 7 and day 14. […]
Blood sugar value was measured using 10-15 μl of plasma and in accord with glucose oxidase method glucose CII-test Waco, Waco Pure Chemicals Co., Ltd.). […] The insulin concentration in plasma was measured using 20 μl of plasma (preservable at −20° C.) and in accord with an antibody method (Phadesef Insulin RIA kit, Kabi Pharmacia). […]

melting point [°C] | SMILES | Blood sugar decrease (%) (female db/db mice)
198 to 199 | Cc1nc2ccc(C(=O)NS(=O)(=O)c3ccccc3)nc2n1Cc1ccc(CO)cc1Cl [Example 115, 5-(Benzenesulfonylcarbamoyl)-3-(2-chloro-4-(hydroxymethyl)benzyl)-2-methyl-3H-imidazo[4,5-b]pyridine] | –
155 to 160 | Cc1nc2ccc(C(=O)NS(=O)(=O)c3ccccc3)nc2n1Cc1ccc(C(=O)O)cc1Cl [Example 116, 5-(benzenesulfonylcarbamoyl)-3-(4-carboxy-2-chlorobenzyl)-2-methyl-3H-imidazo[4,5-b]pyridine] | –
196 to 197 | CCOC(=O)c1ccc(Cn2c(C)nc3ccc(C(=O)NS(=O)(=O)c4ccccc4)nc32)c(Cl)c1 [Example 119, 5-(benzenesulfonylcarbamoyl)-3-(2-chloro-4-(ethoxycarbonyl)benzyl)-2-methyl-3H-imidazo[4,5-b]pyridine] | –
257 to 260 | CNC(=O)c1ccc(Cn2c(C)nc3ccc(C(=O)NS(=O)(=O)c4ccccc4)nc32)c(Cl)c1 [Example 120, 5-(Benzenesulfonylcarbamoyl)-3-(2-chloro-4-(methylcarbamoyl)benzyl)-2-methyl-3H-imidazo[4,5-b]pyridine] | –
175 to 176 | CSc1ccc(Cn2c(C)nc3ccc(C(=O)NS(=O)(=O)/C=C/c4ccccc4)nc32)c(Cl)c1 [Example 148, 3-(2-chloro-4-(methylthio)benzyl)-2-methyl-5-(E)-[(2-phenylethenyl)sulfonylcarbamoyl]-3H-imidazo[4,5-b]pyridine] | –
170 to 171 | CSc1ccc(Cn2c(C)nc3ccc(C(=O)NS(=O)(=O)c4ccc(Cl)s4)nc32)c(Cl)c1 [Example 149, 3-(2-chloro-4-(methylthio)benzyl)-5-[(5-chlorothiophen-2-yl)sulfonylcarbamoyl]-2-methyl-3H-imidazo[4,5-b]pyridine] | –
169 to 170 | CSc1ccc(Cn2c(C)nc3ccc(C(=O)NS(=O)(=O)c4ccc(Br)s4)nc32)c(Cl)c1 [Example 150, 3-[2-chloro-4-(methylthio)benzyl]-5-[(5-bromothiophen-2-yl)sulfonylcarbamoyl]-2-methyl-3H-imidazo[4,5-b]pyridine] | –
184 to 185 | CCCCCS(=O)(=O)NC(=O)c1ccc2nc(C)n(Cc3ccc(SC)cc3Cl)c2n1 [Example 151, 3-(2-chloro-4-(methylthio)benzyl)-2-methyl-5-(1-pentanesulfonylcarbamoyl)-3H-imidazo[4,5-b]pyridine] | –
243 to 244 | Cc1cc(C(=O)NS(=O)(=O)c2ccc(Br)s2)nc2c1nc(C)n2Cc1ccc(-c2ccccc2)cc1Cl [Example 186, 5-[(5-bromothiophen-2-yl)sulfonylcarbamoyl]-3-(2-chloro-4-phenylbenzyl)-2,7-dimethyl-3H-imidazo[4,5-b]pyridine] | –

The remaining lines, values behind:

SMILES | melting point [°C] | Blood sugar decrease (%) (female db/db mice)
CCCCCS(=O)(=O)NC(=O)c1ccc2oc(C)c(Cc3ccc(Cl)cc3Cl)c2c1 [Compound A, 3-(2,4-Dichlorobenzyl)-2-methyl-5-(1-n-pentanesulfonylcarbamoyl)-benzo[b]furan] | – | 71
Cc1nc2ccc(C(=O)NS(=O)(=O)c3ccccc3)nc2n1Cc1ccc(COc2ccccc2)cc1Cl [Example 118, 5-(benzenesulfonylcarbamoyl)-3-(2-chloro-4-((phenyloxy)methyl)-benzyl)-2-methyl-3H-imidazo[4,5-b]pyridine] | 203 to 205 | –
Cc1cc(C(=O)NS(=O)(=O)c2ccccc2)nc2c1nc(C)n2Cc1ccc(Br)cc1Cl [Example 121, 5-(Benzenesulfonylcarbamoyl)-3-(4-bromo-2-chlorobenzyl)-2,7-dimethyl-3H-imidazo[4,5-b]pyridine] | 231 to 232 | –
CCCCCS(=O)(=O)NC(=O)c1cc(C)c2nc(C)n(Cc3ccc(-c4ccccc4)cc3Cl)c2n1 [Example 184, 3-(2-chloro-4-phenylbenzyl)-2,7-dimethyl-5-(1-pentanesulfonylcarbamoyl)-3H-imidazo[4,5-b]pyridine] | 227 to 228 | –
Cc1cc(C(=O)NS(=O)(=O)c2ccc(Cl)s2)nc2c1nc(C)n2Cc1ccc(-c2ccccc2)cc1Cl [Example 185, 3-(2-chloro-4-phenylbenzyl)-5-[(5-chlorothiophen-2-yl)sulfonylcarbamoyl]-2,7-dimethyl-3H-imidazo[4,5-b]pyridine] | 241 to 242 | –
CCCCCS(=O)(=O)NC(=O)c1cc(C)c2nc(C)n(Cc3ccc(-c4cccs4)cc3Cl)c2n1 [Example 188, 3-[2-chloro-4-(thiophen-2-yl)benzyl]-2,7-dimethyl-5-(1-pentanesulfonylcarbamoyl)-3H-imidazo[4,5-b]pyridine] | 220 to 224 | –
CCCCCS(=O)(=O)NC(=O)c1cc(C)c2nc(C)n(Cc3ccc(-c4ccc(Cl)s4)cc3Cl)c2n1 [Example 193, 3-[2-chloro-4-(5-chlorothiophen-2-yl)benzyl]-2,7-dimethyl-5-(1-pentanesulfonylcarbamoyl)-3H-imidazo[4,5-b]pyridine] | 215 to 217 | –
Cc1cc(C(=O)NS(=O)(=O)/C=C/c2ccccc2)nc2c1nc(C)n2Cc1ccc(-c2ccc(Cl)s2)cc1Cl [Example 196, 3-[2-chloro-4-(5-chlorothiophen-2-yl)benzyl]-2,7-dimethyl-5-[(E)-(2-phenylethenyl)sulfonylcarbamoyl]-3H-imidazo[4,5-b]pyridine] | 224 to 225 | –
